# Several values for one entry are separate records, joined by “and”; a condition that tells them apart may be missing. Equal values may be shown once. Read-outs that look alike come from different tables or passages of the source.
# Legend:
# [1] = system: Leishmania amazonensis; test: Antileishmanial assay, Leishmania in infected macrophages (L. amazonensis); conditions: for IC50: Leishmania amazonensis, Macrophage
# [2] = system: P. falciparum clone W2/Indochina; test: In vitro malaria assay, [3H]-hypoxanthine incorporation; format: cell-based; conditions: Plasmodium falciparum, W2, 72 h, read-out: IC50 Plasmodium
# Procedure: a. In vitro Parasite Culturing: P. falciparum clone W2/Indochina was grown in continuous culture using RPMI 1640 media containing 10% heat-inactivated type A+ human plasma, sodium bicarbonate (2.4 g/L), HEPES (5.94 g/L) and 4% washed human type A+ erythrocytes. Cultures were gassed with a 90% N2, 5% O2 and 5% CO2 mixture followed by incubation at 37° C. b. Assay Preparation: Test compounds at 5 mg/mL in DMSO were diluted 1:500 and then serially diluted in duplicate over 11 concentrations. P. falciparum cultures with >70% ring stage parasites were diluted to 0.5-0.7% parasitemia and 1.5% hematocrit in RPMI 1640 media. In 96-well plates a volume of 90 μl/well of parasitized erythrocytes was added on top of 10 μL/well of the test compound. A separate plate containing chloroquine, dihydroartemisinin and atovaquone was added to each set of assay plates as control drugs. A Beckman Coulter Biomek 3000 was used to dispense test compounds, control drugs and parasitized erythrocytes into the microtiter plates. Positive and negative controls were included in each plate. Positive controls consisted of parasitized erythrocytes and negative controls consisted of non-parasitized erythrocytes at 1.5% hematocrit in RPMI 1640 media. Assay plates were placed into a modulator incubator chamber and equilibrated with 90% N2, 5% O2 and 5% CO2 mixture then incubated at 37° C. for 48 hours. After 48 hours, approximately 0.05 μCi of [^3H]-hypoxanthine monohydrochloride was added to each well of the assay plates. Plates were put back into the modulator incubation chamber, gassed with the 90% N2, 5% O2 and 5% CO2 mixture then incubated at 37° C. for an additional 24 hours. After 72 hours total incubation time the plates were frozen at −80° C. until later processed for parasite growth determinations. c. Assay Plate Processing: Assay plates were harvested using a Perkin Elmer FilterMate Harvester. The incorporation of [^3H]-hypoxanthine into nucleic acid was measured using a Perkin Elmer Topcount NXT Microplate Scintillation & Luminescence Counter. d. Data Analysis: Data analysis was performed using a custom database manager (Dataspects, Inc). Nonlinear regression analysis was used to calculate EC50.
# [3] = system: Leishmania donovani in infected macrophages; conditions: Senn et al. 2007; read-out: IC50 against Leishmania donovani in infected macrophages; cited from earlier work
# [4] = system: B. anthracis; format: cell-based; conditions: minimum inhibitory concentration
# [5] = system: S. pyogenes; test: MIC broth microdilution, Alamar Blue; format: cell-based; conditions: minimum inhibitory concentration
# [6] = system: S. aureus 13709; test: MIC broth microdilution, Alamar Blue; format: cell-based; conditions: minimum inhibitory concentration
# [7] = system: HepG2 cells; test: Cytotoxicity against human liver (HepG2) cells, Alamar Blue; format: cell-based
# Procedure: Several of these analogues were also evaluated for cytotoxicity against human liver (HepG2) cells. Of particular interest was that compounds 47 and 48 were approximately an order of magnitude less cytotoxic as compared to compound 1.
# Adherent cell lines were maintained in Eagle's Minimal Essential Media (Sigma-Aldrich, St. Louis, Mo., USA) with 2 mM glutamine and Earle's Balanced Salt Solution (HyClone, Logan, Utah, USA) adjusted to contain 1.5 g/L sodium bicarbonate, 0.1 mM non-essential amino acids, 1 mM sodium pyruvate and 10% fetal calf serum. Fetal calf serum used in these assays was lot matched throughout. All cultures were maintained under a humidified 5% CO2 atmosphere at 37° C., had media refreshed twice weekly and were subcultured by trypsinization and resuspension at a ratio of 1:5 each week. Toxicity assays were conducted between passages 10-20. Target compound toxicity was measured by incubating the test compound with the cells for 4 hours, washing the cells and finally treating the cells with Alamar Blue. After 12-24 hours, the fluorescence of the reduced dye was measured. Fluorescence intensity as a function of test compound concentration was fit to the Fermi equation, using non-linear least squares regression analysis, to estimate IC50 values.
# [8] = system: C. glabrata; test: MIC broth microdilution, Alamar Blue; format: cell-based; conditions: minimum inhibitory concentration
# [9] = system: B. subtilis; test: MIC broth microdilution, Alamar Blue; format: cell-based; conditions: minimum inhibitory concentration
# [10] = system: P. aeruginosa; test: MIC broth microdilution, Alamar Blue; format: cell-based; conditions: minimum inhibitory concentration
# [11] = system: E. faecalis; test: MIC broth microdilution, Alamar Blue; format: cell-based; conditions: minimum inhibitory concentration
# [12] = system: C. albicans; test: MIC broth microdilution, Alamar Blue; format: cell-based; conditions: minimum inhibitory concentration
# [13] = system: leishmaniasis (LV82 PM infection), liver parasitemia; test: In vivo efficacy: liver parasitemia in BALB/c mice with leishmaniasis; conditions: 10 mg/kg i.p.; for LDU mean ± SD: group mean, n=4; for % Reduction (Average) in liver parasitemia: infected BALB/c mice; for # of amastigotes per 200 nuclei: liver; for # of amastigotes per 200 nuclei / LDU: individual mice; for LDU: total liver parasitemia
# Procedure: The following protocols were used to prepare the various treatments described in Table 2: • a. Miltefosine ([…] stock solution in sterile PBS): 7.5 mg miltefosine was weighed and put in a eppendorf tube, then 0.75 mL of sterile PBS was added. After vortexing, a clear solution was formed. Make 1 mg/mL solution daily by diluting 100 μL of 10 mg/mL miltefosine solution in 900 μL sterile PBS. • b. Vehicle control: 5% (v/v) DMSO, 50% (v/v) PEG 400, 10% (v/v) Ethanol, and 35% (v/v) distilled water. • c. Compound 47 (2 mg/mL solution of compound 47 in PEG 400/Ethanol vehicle): […]. Dilute the above solution 1:20 with PEG 400/EtOH/water daily. After vortexing and warming up at 37° C. for 30 min., a clear solution formed. • d. Compound 48 (2 mg/mL solution of compound 48 in PEG 400/Ethanol vehicle): 6.8 mg of compound 48 was dissolved in 0.17 mL of DMSO to make a 40 mg/mL stock solution. After vortexing, a yellowish-brown solution was formed. Diluted the above solution 1:20 with PEG 400/EtOH/water daily. After vortexing a clear solution formed. • e. Compound 50 (2 mg/mL solution of compound 50 in PEG 400/Ethanol vehicle): 8.4 mg of compound 50 was dissolved in 0.21 mL of DMSO to make a 40 mg/mL stock solution. After vortexing, a dark yellowish-brown solution was formed. Diluted the above solution 1:20 with PEG 400/EtOH/water. After vortexing a clear solution formed.
# (§1) Compounds 47, 48, and 50 were then evaluated in animal studies with BALB/c mice with leishmaniasis. Compounds were delivered via i.p. injection at 10 mg/kg, with untreated, vehicle, and miltefosine controls as described in Table 2. […] Miltefosine, the only oral treatment currently available to treat leishmaniasis in humans, was also evaluated in the BALB/c mice for comparison purposes.
# [14] = system: Leishmania donovani; test: Antileishmanial assay, Leishmania in infected macrophages (L. donovani); conditions: for Selectivity Index: IC50 for HepG2 cells/IC50 for Leishmania donovani; for IC50: Leishmania donovani, Macrophage
# [15] = Body and organ weights of infected, treated BALB/c mice; format: in vivo; conditions: for Body weight / Mean body weight of mice Post-treatment: 10 mg/kg i.p.; for Body weight: individual mice, Table 4; for Mean body weight of mice Post-treatment / Mean body weight of mice Pre-treatment: group mean; for Mean body weight of mice Pre-treatment: pre-treatment (baseline)
# Procedure: as §1
# [16] = read-out: IC50 Leishmania in infected macrophages
# [17] = read-out: IC50 against Leishmania amazonensis
# [18] = HepG2, read-out: IC50 against the HepG2 cell line
# [19] = HepG2, read-out: IC50 mammalian HepG2 cells
Compound,"IC50 [1, 16]","IC50 [1, 17]",IC50 [2],MIC B. anthracis [4],MIC S. pyogenes [5],MIC S. aureus [6],"IC50 [7, 18]","IC50 [7, 19]",MIC C. glabrata [8],MIC B. subtilis [9],MIC P. aeruginosa [10],MIC E. faecalis [11],MIC C. albicans [12],LDU mean ± SD [13],% Reduction (Average) in liver parasitemia [13],# of amastigotes per 200 nuclei [13],LDU [13],Selectivity Index [14],"IC50 [14, 16]",Body weight [15],also measured
"C=CC(C#CC#CC(O)CCCCCCCCC)OC(C)=O [(S,S)-1, 8-hydroxyheptadeca-1-ene-4,6-diyn-3-yl acetate, reference compound]",1280 nM,1280 nM,0.27 µg/mL,–,–,–,–,–,–,–,–,–,–,–,–,–,–,–,–,–,IC50 [3]: 320 nM
"C=C[C@@H](C#CC#C[C@H](O)CCCCCCCCC)OC(C)=O [Compound 1, (3S,8R)-8-hydroxyheptadeca-1-en-4,6-diyn-3-yl acetate]",626 nM,630 nM,0.341 µg/mL,4,8,>1000,35000 ± 3000 nM,35000 ± 3000 nM,>1000,8,>1000,32,>1000,–,–,–,–,–,–,–,Selectivity Index ([1]; IC50 for HepG2 cells/IC50 for Leishmania amazonensis): 60
"C=C[C@@H](C#CC#C[C@@H](CCCCCCCCC)NCCCC)OC(C)=O [Compound 48, (3S,8R)-8-(butylamino)heptadeca-1-en-4,6-diyn-3-yl acetate]",–,–,5.72 µg/mL,250,250,500,342000 ± 46000 nM,342000 ± 46000 nM,>1000,125,>1000,500,1000,2721.9,32.4%,536 and 529 and 498 and 476,2541.4 and 2830.2 and 2913.1 and 2603.0,"10,000",34 nM,17.2 g and 19.2 g and 19.8 g and 19.0 g,% Reduction (Average) in liver parasitemia ([13]; listed as compound 48): 32%; Mean body weight of mice Post-treatment [15]: 18.8 g; Mean body weight of mice Pre-treatment [15]: 19.3 g
"C=C[C@H](O)C#CC#C[C@H](O)CCCCCCCCC [Compound 50, (3S,8R)-heptadeca-1-en-4,6-diyne-3,8-diol]",–,–,0.271 µg/mL,1000,8,16,38000 ± 2000 nM,38000 ± 2000 nM,8,2,4,16,16,2367.2,41.2%,628 and 557 and 643 and 612,2737.5 and 2143.9 and 2654.9 and 1932.7,2900,13 nM,15.7 g and 14.6 g and 14.1 g and 13.4 g,% Reduction (Average) in liver parasitemia ([13]; listed as compound 50): 41%; IC50 ([14]; read-out: IC50 anti-Leishmanial): 13 nM; Mean body weight of mice Post-treatment [15]: 14.5 g; Mean body weight of mice Pre-treatment [15]: 16.3 g

# Reference: patent publication US20130261133A1, “Therapeutic Compounds for Protozoal and Microbial Infections and Cancer” (THE UNIVERSITY OF MONTANA, priority 2012, published 2013)
